Test results from ChEMBL document CHEMBL4177718, “Discovery of molecular mechanism of a clinical herbal formula upregulating serum HDL-c levels in treatment of metabolic syndrome by in vivo and computational studies” (2018).

Organism: Rattus norvegicus
Assay: Up-regulation of ABCA1 protein expression in serum of Wistar rat model of metabolic syndrome fed with high-sugar-fat-diet for 15 weeks followed by high-fat emulsion for 2 weeks by ELISA
Format: functional

| SMILES | fold change (FC) |
| --- | --- |
| Cc1ccc(CCC(=O)c2ccc(N)cc2O)o1 | 1.9 |
| COc1ccc(-c2ccc(/C=C/C(=O)c3ccc(N)cc3O)s2)cc1 | 1.09 |
| O=c1cc(-c2csc3ccccc23)oc2cc(O)ccc12 | 1.44 |
| Cc1ccc(-c2cc(=O)c3ccc(N)cc3o2)o1 | 1.3 |
| Nc1ccc(C(=O)/C=C/c2cccc(Oc3ccccc3)c2)c(O)c1 | 1.76 |
| CC(=O)Nc1ccc(C(=O)/C=C/c2ccc(C)s2)c(O)c1 | 1.08 |
| Cc1ccc(/C=C/C(=O)c2ccc(N)cc2O)o1 | 2.09 |
| COc1cc(N)ccc1C(=O)/C=C/c1ccc(C)s1 | 1.5 |
| CC(C)c1ccc(-c2cc(=O)c3ccc(O)cc3o2)cc1 | 1.22 |
| CCOc1ccc(-c2cc(=O)c3ccc(N)cc3o2)cc1 | 1.37 |
| Cc1ccc(-c2cc(=O)c3ccc(N)cc3o2)s1 | 1.47 |
| O=C(O)c1ccc(-c2cc(=O)c3ccc(O)cc3o2)cc1 | 1.66 |
| COc1cc(N(C)C)ccc1C(=O)/C=C/c1ccc2ccccc2c1 | 1.35 |
| CSc1ccc(/C=C/C(=O)c2ccc(N)cc2O)cc1 | 1.26 |
| O=c1cc(-c2cccc(Oc3ccccc3)c2)oc2cc(O)ccc12 | 1.17 |
| Nc1ccc(C(=O)/C=C/c2c[nH]c3ccccc23)c(O)c1 | 1.76 |
| CCOc1ccc(/C=C/C(=O)c2ccc(N)cc2OC)cc1 | 1.06 |
| O=c1cc(-c2c[nH]c3ccccc23)oc2cc(O)ccc12 | 1.9 |
| Cc1ccc(/C=C/C(=O)c2ccc(N)cc2O)s1 | 2 |
| COc1cc(/C=C/C(=O)c2ccc(N)cc2O)cc(OC)c1OC | 0.98 |
| Cc1ccc(/C=C/C(=O)c2ccc(N(C)C)cc2O)o1 | 1.02 |

| SMILES | fold change (FC) |
| --- | --- |
| COc1cc(N)ccc1C(=O)/C=C/c1ccc2ccccc2c1 | 0.88 |
| Nc1ccc(C(=O)/C=C/c2ccc(Cl)cc2)c(O)c1 | 1.16 |
| Nc1ccc(C(=O)/C=C/c2ccc3c(c2)OCO3)c(O)c1 | 1.92 |
| Nc1ccc(C(=O)/C=C/c2cc(C(F)(F)F)cc(C(F)(F)F)c2)c(O)c1 | 1.12 |
| Nc1ccc(C(=O)CCc2ccc3ccccc3c2)c(O)c1 | 1.34 |
| COc1ccc(-c2ccc(-c3cc(=O)c4ccc(O)cc4o3)s2)cc1 | 1.03 |
| CCOc1ccc(/C=C/C(=O)c2ccc(N)cc2O)cc1 | 1.92 |
| Nc1ccc(C(=O)/C=C/c2ccc3ccccc3c2)c(O)c1 | 2.64 |
| CCc1ccc(/C=C/C(=O)c2ccc(N)cc2O)cc1 | 1.73 |
| COc1cc(N)ccc1C(=O)/C=C/c1ccc(C)o1 | 1.2 |
| O=c1cc(-c2ccc3ccccc3c2)oc2cc(O)ccc12 | 1.57 |
| O=c1cc(-c2ccc(-c3ccccc3)cc2)oc2cc(O)ccc12 | 1.15 |
| COc1ccc(/C=C/C(=O)c2ccc(N)cc2O)cc1OC | 1.86 |
| Nc1ccc(C(=O)/C=C/c2ccc(F)cc2)c(O)c1 | 1.36 |
| Nc1ccc(C(=O)/C=C/c2csc3ccccc23)c(O)c1 | 2.31 |
| COc1cc(N(C)C)ccc1C(=O)/C=C/c1ccc(C)o1 | 1.57 |
| O=c1cc(-c2ccc3ccccc3n2)oc2cc(O)ccc12 | 1.36 |
| Nc1ccc(C(=O)/C=C/c2ccc(-c3ccccc3)cc2)c(O)c1 | 1.55 |
| CC(C)c1ccc(/C=C/C(=O)c2ccc(N)cc2O)cc1 | 2.05 |
| COc1cccc(/C=C/C(=O)c2ccc(N)cc2O)c1 | 2.09 |
